Reference: US20210386829A1, “COMPOSITIONS AND METHODS FOR MODULATING CGRP SIGNALING TO REGULATE INNATE LYMPHOID CELL INFLAMMATORY RESPONSES” (The Broad Institute, Inc., priority 2018, published 2021)
“Also recorded” adds a separate entry of the source.

Test system: IL-33-induced airway inflammation
Experiment: IL-33-induced airway inflammation, intranasal co-administration of CGRP
Assay type: in vivo, mouse
Excerpt: Mice and in vivo ILC activation. C57B1/6J mice were purchased from the Jackson Laboratory. Nmur1-LacZ reporter mice with a LacZ cassette knocked into the Nmur1 locus were rederived from Nmur1^tm1.1(KOMP)Vlcg sperm obtained from the trans-NIH Knock-Out Mouse Project (KOMP) Repository. NMU-deficient mice (NMU-KO) were rederived from B6.129S2-Nmu<tm1Mko> embryos from the RIKEN BioResource Center. For experiments with Nmur1-LacZ (Nmur1-KO) and NMU-KO mice, littermates that were either homozygous or heterozygous for the wild type allele were used as controls. Mice were housed under specific-pathogen-free conditions. For experiments, mice were matched for sex and age, and most mice were 6-10 weeks old. Where indicated, mice were anesthetized with Isoflurane and treated intranasally with the indicated stimuli (500 ng IL-25, 500 ng IL-33, or 20 μg Neuromedin U) daily for three consecutive days. The total administered volume was 20 μl for all conditions. Mice were randomly assigned to treatment groups after matching for sex and age. […] Mice were treated intranasally with 10 μg HDM on day 0, 7, 8, and 9, prior to sacrifice on day 10. All experiments were conducted in accordance with animal protocols approved by the Harvard Medical Area Standing Committee on Animals or BWH IACUC.
Lung analysis. Mice were sacrificed and perfused with cold PBS. Where indicated, after perfusion, broncho-alveolar lavage (BAL) was obtained by injecting 1.5 ml cold PBS into the lungs via a secured tracheal cannula. BALF was centrifuged, and the supernatant was used for analyzing cytokine levels and the cell pellet was resuspended, counted, and used for flow cytometry. Following BAL, lung lobes were dissected. The post-caval lobe was fixed in buffered formalin for histological analysis. Single cell suspensions of the remaining lung parenchymal tissue were prepared with the GentleMACS lung dissociation kit (Miltenyi Biotec) according to the manufacturer's instructions. Where indicated, cells were diluted in 10% Trypan Blue and viable cells counted using a hemocytometer.
Histology. Following paraffin embedding, sections of the formalin-fixed lung lobe were stained by H&E staining. Tissue sections were scored by a histopathologist in a blinded manner for severity of lung inflammation according to the following scoring system: 0=normal, 1=very mild, 2=mild, 3=moderate or 4=severe.
Methacholine challenge. Airway hyperresponsiveness was determined as previously described (Talbot, S. et al. Silencing Nociceptor Neurons Reduces Allergic Airway Inflammation. Neuron 87, 341-354, doi:10.1016/j.neuron.2015.06.007 (2015)) using a flexiVent rodent ventilator (SciReq).
Cytokine-induced airway inflammation. Mice received nasally 500 ng IL-25, 500 ng IL-33, 20 ug NMU or 6.65 ug CGRP diluted in DPBS for three consecutive days. For nasal administration, mice were lightly anesthetized with Isoflurane (Cat #07-893-1389; Patterson Veterinary). For induction of inflammatory ILC2s, mice received intraperitoneally 500 ng IL-25 for three consecutive days. One day after the last treatment, mice were euthanized and perfused with 8 ml cold PBS via the right heart ventricle. After exposure of the trachea, a small incision was made at the top of the trachea and a curved gavage needle was inserted. Lungs were washed with 1.5 ml cold PBS via the needle and the retrieved bronchoalveolar lavage fluid was centrifuged at 1300 rpm for 5 min at 4 C. After centrifugation, the supernatant was frozen at −20° C. and the cell pellet was resuspended in 250 ul complete medium and stored on ice until flow cytometric analysis. The post-caval lung lobe was transferred into 10% buffered formalin and stored at room temperature until paraffin embedding for histological analysis. […]

[1] = IL-33+CGRP vs IL-33 alone, intranasal, three consecutive days

With “CGRP: neuropeptide calcitonin gene-related peptide (encoded by Calca), ligand of the Ramp1/Calcrl receptor; given at 100 nM in vitro, 6.65 ug nasally” the “lung histology (H&E)” value (CGRP alone vs PBS-treated control mice) was “histologically identical”, the “frequency or total number of lung-resident ILCs” value (CGRP alone vs PBS-treated mice) was “did not alter” and the “IL-33-induced perivascular and peribronchial lymphocytic infiltrates in lung sections (H&E, blinded score)” value (IL-33+CGRP vs IL-33 alone) was “markedly inhibited”. For the same substance, the “airway hyperreactivity (airway resistance, methacholine challenge)” value (IL-33+CGRP vs IL-33 alone) was “less airway hyperreactivity”, the “frequency of IL-5- and IL-13-positive ILCs” value (IL-33+CGRP vs IL-33 alone) was “significantly reduced” and the “frequency of Ki67+ lung ILCs” value (IL-33+CGRP vs IL-33 alone) was “decreased frequencies”. For the same substance, the “lung ILC frequencies and numbers” value (IL-33+CGRP vs IL-33 alone) was “significantly reduced”, the “IL-5 and IL-13 protein in BALF (lung homogenates and BALF)” value [1] was “lower; also recorded: reduced; also recorded: greatly diminished” and the “eosinophil frequency in lungs and BALF” value [1] was “significantly reduced; also recorded: significantly decreased”. The “eosinophil numbers in lung (lung and BALF)” value [1] was “significantly reduced; also recorded: significantly decreased” and the “Il5 and Il13 RNA expression in lung tissue (qPCR)” value (IL-33+CGRP vs IL-33 alone, intranasal, three consecutive days, analysed one day later) was “significantly reduced”.
